The results in this text go back to patent US12384756B2, “Piperidinedione derivatives” (INNOCURE THERAPEUTICS, INC., priority 2021, dated 2025).

Test [1] relates to Human breast cancer cell line [MDA-MB-231]. Kind of test: Anti-proliferative activity (WST-8) of BRD4 targeted PROTAC in MDA-MB-231. The format is cell-based. The note with it: Homo sapiens, MDA-MB-231, 72 hours. As to the method: (§1) Human breast cancer cell line [MDA-MB-231] was cultured in RPMI medium with 10% petal bovine serum, penicillin [100 U/ml] and streptomycin [[…]]. The synthesized compound was prepared as a stock solution of 10 mM or 50 mM dissolved in DMSO [dimethyl sulfoxide], and it was sequentially diluted to treat the cell line.
In order to observe inhibition of cell growth, cells were aliquoted into concentrations of 5,000 cells/well at 96 well plates, and then were treated with samples prepared at various concentrations for 72 hours. The cell survival was calculated by steps of adding in each well […] of water soluble tetrazolium salt (WST-8) which produces formazon in response to dehydrogenase present in the electron transport chain in mitochondria, incubating for 2 hours, measuring the absorbance at 450 nm, and calculating by GraphicPad Prism 8.0 software.

The target of another test is BRD4 (Homo sapiens, UniProt O60885). Kind of test: BRD4 protein degradation by western blot in MDA-MB-231 cells. Details: BRD4 expressed in cells; endogenous in cells; host or cells: MDA-MB-231. The class given is cell-based. The note with it: MDA-MB-231, 24 hours; for DC50: 50% inhibition of protein expression, read-out: DC50 of BRD4-targeted PROTAC. How it is done:
as §1
To evaluate the PROTAC's degradation ability to BRD4 expressed in cells, the cells were aliquoted into a 6 well plate at a concentration of 5×10^5 cells/ml, and then the sample was treated for 24 hours. In order to conduct western blotting assay to confirm protein expression, the cell treated with the compound was treated for 30 minutes with 70 μL of RIPA buffer wherein protease inhibitor is added. Then, cell lysate was collected on ice using a scraper and centrifuged at 4° C. 15,000 rpm for 30 minutes to obtain a supernatant containing protein. Then, SDS-PAGE is conducted for 10 μg of protein per each sample, and the protein is transferred to a membrane. The protein is reacted with antibodies of anti-BRD4, anti-tubulin and anti-GAPDH at 4° C. for 16 hours, and then, reacted with secondary antibodies at room temperature for 1 hour. The protein expression is confirmed using SUPERSIGNAL™ WEST PICO PLUS chemiluminescence substrate and image analyzer. The protein expression was normalized based on the expression value of β-tublin or GAPDH. The amount of protein expression in each sample was measured in % based on the sample treated with 0.1% DMSO vehicle which was set to 100%. The amount of protein expression was quantified using the IMAGE J PROGRAM. The change in the amount of protein expression due to the treatment of compound (DC50: the concentration of compounds where the 50% inhibition of protein expression is achieved) was calculated using […] PRISM 8.0 software.
(In general: In western blotting, separated proteins are transferred to a membrane and probed.)

The mark [2] stands for this setting: WST-8, read-out: IC50 of BRD4-targeted PROTAC (cell proliferation).
[3] abbreviates: read-out: concentration at which cancer cell proliferation is effectively inhibited.

Where two headings read alike, the source gives them in different places. Some results are limits rather than exact numbers.

For the molecule `Cc1sc2c(c1C)C(c1ccc(Cl)cc1)=N[C@@H](CC(=O)NCC1CCN(c3cccc4cnn(C5CCC(=O)NC5=O)c(=O)c34)C1)c1nnc(C)n1-2` (stereo partly drawn) [Example 50, 2-((S)-4-(4-chlorophenyl)-2,3,9-trimethyl-6H-thieno[3,2-f][1,2,4]triazolo[4,3-a][1,4]diazepin-6-yl)-N-((1-(3-(2,6-dioxopiperidin-3-yl)-4-oxo-3,4-dihydrophthalazin-5-yl)pyrrolidin-3-yl)methyl)acetamide], the IC50 in test [1] (setting [2]) came to 622 nM.

With `Cc1sc2c(c1C)C(c1ccc(Cl)cc1)=N[C@@H](CC(=O)Nc1cccc(OCCOCCOCCNc3cccc4c(=O)n(C5CCC(=O)NC5=O)ncc34)c1)c1nnc(C)n1-2` (stereo partly drawn) [Ex. 30, 2-[(9S)-7-(4-chlorophenyl)-4,5,13-trimethyl-3-thia-1,8,11,12-tetraazatricyclo[8.3.0.0^2,6]trideca-2(6),4,7,10,12-pentaen-9-yl]-N-(3-{2-[2-(2-{[2-(2,6-dioxopiperidin-3-yl)-1-oxo-1,2-dihydrophthalazin-5-yl]amino}ethoxy)ethoxy]ethoxy}phenyl)acetamide], the IC50 in test [1] (setting [2]) is > 1000 nM.

On to `Cc1sc2c(c1C)C(c1ccc(Cl)cc1)=N[C@@H](CC(=O)Nc1cccc(OCCOCCOCCNc3ccc4cnn(C5CCC(=O)NC5=O)c(=O)c4c3)c1)c1nnc(C)n1-2` (stereo partly drawn) [Example 42, 2-((S)-4-(4-chlorophenyl)-2,3,9-trimethyl-6H-thieno[3,2-f][1,2,4]triazolo[4,3-a][1,4]diazepin-6-yl)-N-(3-(2-(2-(2-((3-(2,6-dioxopiperidin-3-yl)-4-oxo-3,4-dihydrophthalazin-6-yl)amino)ethoxy)ethoxy)ethoxy)phenyl)acetamide], for which the IC50 in test [1] (setting [2]) is 20.3 nM. Moreover, the IC50 in test [1] (setting [3]) is < 250 nM. Further, at BRD4, the “BRD4 degradation (in words)” value is recorded as “effectively degraded” and the 50% degradation concentration (DC50) (in general, the concentration at which degradation of the target reaches its halfway point) was 10.7 nM.

For `Cc1sc2c(c1C)C(c1ccc(Cl)cc1)=N[C@@H](CC(=O)NCc1cn(CCOCCOCCNc3cccc4c(=O)n(C5CCC(=O)NC5=O)ncc34)nn1)c1nnc(C)n1-2` (stereo partly drawn) [Ex. 33, 2-[(9S)-7-(4-chlorophenyl)-4,5,13-trimethyl-3-thia-1,8,11,12-tetraazatricyclo[8.3.0.0^2,6]trideca-2(6),4,7,10,12-pentaen-9-yl]-N-[(1-{2-[2-(2-{[2-(2,6-dioxopiperidin-3-yl)-1-oxo-1,2-dihydrophthalazin-5-yl]amino}ethoxy)ethoxy]ethyl}-1H-1,2,3-triazol-4-yl)methyl]acetamide], in test [1] (setting [2]), the IC50 is > 1000 nM. Also, at BRD4, the DC50 was found to be 171 nM.

`Cc1sc2c(c1C)C(c1ccc(Cl)cc1)=N[C@@H](CC(=O)NCC1CCN(c3cccc4cnn(C5CCC(=O)NC5=O)c(=O)c34)CC1)c1nnc(C)n1-2` (stereo partly drawn) [Example 53, 2-((S)-4-(4-chlorophenyl)-2,3,9-trimethyl-6H-thieno[3,2-f][1,2,4]triazolo[4,3-a][1,4]diazepin-6-yl)-N-((1-(3-(2,6-dioxopiperidin-3-yl)-4-oxo-3,4-dihydrophthalazin-5-yl)piperidine-4-yl)methyl)acetamide]: the IC50 in test [1] (setting [2]) was > 1000 nM.

In the case of `Cc1sc2c(c1C)C(c1ccc(Cl)cc1)=N[C@@H](CC(=O)Nc1cccc(OCCOCCOCCNc3cccc4c(C)nn(C5CCC(=O)NC5=O)c(=O)c34)c1)c1nnc(C)n1-2` (stereo partly drawn) [Example 39, 2-((S)-4-(4-chlorophenyl)-2,3,9-trimethyl-6H-thieno[3,2-f][1,2,4]triazolo[4,3-a][1,4]diazepin-6-yl)-N-(3-(2-(2-(2-((3-(2,6-dioxopiperidin-3-yl)-1-methyl-4-oxo-3,4-dihydrophthalazin-5-yl)amino)ethoxy)ethoxy)ethoxy)phenyl)acetamide], the IC50 was < 1 nM in test [1] (setting [2]) and < 250 nM in test [1] (setting [3]). Besides, the “BRD4 degradation (in words)” value at BRD4 was “effectively degraded”. At BRD4, the 50% degradation concentration (DC50) was found to be 0.575 nM.

For `Cc1sc2c(c1C)C(c1ccc(Cl)cc1)=N[C@@H](CC(=O)NCCCCCNc1cccc3cnn(C4CCC(=O)NC4=O)c(=O)c13)c1nnc(C)n1-2` (stereo partly drawn) [Example 52, 2-[(9S)-7-(4-chlorophenyl)-4,5,13-trimethyl-3-thia-1,8,11,12-tetraazatricyclo[8.3.0.0^2,6]trideca-2(6),4,7,10,12-pentaen-9-yl]-N-(5-{[3-(2,6-dioxopiperidin-3-yl)-4-oxo-3,4-dihydrophthalazin-5-yl]amino}pentyl)acetamide], the IC50 in test [1] (setting [2]) was determined as 127 nM.

Take `Cc1sc2c(c1C)C(c1ccc(Cl)cc1)=N[C@@H](CC(=O)NCc1cn(CCOCCOCCNc3cccc4cnn(C5CCC(=O)NC5=O)c(=O)c34)nn1)c1nnc(C)n1-2` (stereo partly drawn) [Ex. 31, 2-((S)-4-(4-chlorophenyl)-2,3,9-trimethyl-6H-thieno[3,2-f][1,2,4]triazolo[4,3-a][1,4]diazepin-6-yl)-N-((1-(2-(2-(2-((3-(2,6-dioxopiperidin-3-yl)-4-oxo-3,4-dihydrophthalazin-5-yl)amino)ethoxy)ethoxy)ethyl)-1H-1,2,3-triazol-4-yl)methyl)acetamide]: the IC50 in test [1] (setting [2]) was > 1000 nM.

Regarding `Cc1sc2c(c1C)C(c1ccc(Cl)cc1)=N[C@@H](CC(=O)Nc1ccc(OCCOCCOCCOCCNc3ccc4cnn(C5CCC(=O)NC5=O)c(=O)c4c3)cc1)c1nnc(C)n1-2` (stereo partly drawn) [Ex. 29, 2-((S)-4-(4-chlorophenyl)-2,3,9-trimethyl-6H-thieno[3,2-f][1,2,4]triazolo[4,3-a][1,4]diazepin-6-yl)-N-(4-(2-(2-(2-(2-((3-(2,6-dioxopiperidin-3-yl)-4-oxo-3,4-dihydrophthalazin-6-yl)amino)ethoxy)ethoxy)ethoxy)ethoxy)phenyl)acetamide], the IC50 in test [1] (setting [2]) turned out to be 98.6 nM. Also, in test [1] (setting [3]), the IC50 is < 250 nM. At BRD4, the “BRD4 degradation (in words)” value is listed as “effectively degraded” and the DC50 stood at 3.7 nM.

Turning to `Cc1sc2c(c1C)C(c1ccc(Cl)cc1)=N[C@@H](CC(=O)NCCCCCNc1cccc3c(=O)n(C4CCC(=O)NC4=O)ncc13)c1nnc(C)n1-2` (stereo partly drawn) [Example 51, 2-[(9S)-7-(4-chlorophenyl)-4,5,13-trimethyl-3-thia-1,8,11,12-tetraazatricyclo[8.3.0.0^2,6]trideca-2(6),4,7,10,12-pentaen-9-yl]-N-(5-{[2-(2,6-dioxopiperidin-3-yl)-1-oxo-1,2-dihydrophthalazin-5-yl]amino}pentyl)acetamide], the IC50 in test [1] (setting [2]) amounted to 101 nM.

For `Cc1sc2c(c1C)C(c1ccc(Cl)cc1)=N[C@@H](CC(=O)NCCOc1cccc3c(=O)n(C4CCC(=O)NC4=O)ncc13)c1nnc(C)n1-2` (stereo partly drawn) [Example 46, 2-((S)-4-(4-chlorophenyl)-2,3,9-trimethyl-6H-thieno[3,2-f][1,2,4]triazolo[4,3-a][1,4]diazepin-6-yl)-N-(2-((2-(2,6-dioxopiperidin-3-yl)-1-oxo-1,2-dihydrophthalazin-5-yl)oxy)ethyl)acetamide], the IC50 in test [1] (setting [2]) is > 1000 nM.

For the molecule `Cc1sc2c(c1C)C(c1ccc(Cl)cc1)=N[C@@H](CC(=O)NCc1cn(CCOCCOCCOCCNc3cccc4cnn(C5CCC(=O)NC5=O)c(=O)c34)nn1)c1nnc(C)n1-2` (stereo partly drawn) [Ex. 32, 2-((S)-4-(4-chlorophenyl)-2,3,9-trimethyl-6H-thieno[3,2-f][1,2,4]triazolo[4,3-a][1,4]diazepin-6-yl)-N-((1-(2-(2-(2-(2-((3-(2,6-dioxopiperidin-3-yl)-4-oxo-3,4-dihydrophthalazin-5-yl)amino)ethoxy)ethoxy)ethoxy)ethyl)-1H-1,2,3-triazol-4-yl)methyl)acetamide], the IC50 in test [1] (setting [2]) was > 1000 nM.
